In US10988459B2 (priority 2015, dated 2021):

target: human RIP1 kinase domain (2-375) (Homo sapiens (Human), UniProt Q13546); assay: biochemical; type: biochemical; details: RIP1 Ki
Method in brief: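 50 nM purified kinase domain from baculovirus-infected insect cells, incubated 2 h with compound in 50 mM Hepes pH 7.5, 30 mM MgCl2, 1 mM DTT, 50 uM ATP, 0.002% Brij-35, 0.5% DMSO. ADP formation read by Transcreener FP at 633 nm excitation. Ki^app fitted with the Morrison tight-binding equation.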

Sequence of human RIP1 kinase domain (2-375) (Q13546 2-375): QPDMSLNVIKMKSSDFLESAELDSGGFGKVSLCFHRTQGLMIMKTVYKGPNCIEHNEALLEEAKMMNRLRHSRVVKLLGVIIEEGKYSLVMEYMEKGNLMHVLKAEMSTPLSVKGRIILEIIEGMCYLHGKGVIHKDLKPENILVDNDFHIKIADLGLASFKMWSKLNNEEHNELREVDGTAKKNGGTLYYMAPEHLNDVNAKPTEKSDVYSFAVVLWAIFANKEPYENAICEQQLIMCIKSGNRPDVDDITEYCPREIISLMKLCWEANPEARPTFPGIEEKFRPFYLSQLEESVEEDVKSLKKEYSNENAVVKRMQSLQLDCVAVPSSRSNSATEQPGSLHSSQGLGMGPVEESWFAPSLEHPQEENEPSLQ

Ki [nM]	SMILES
4.9	CN1C(=O)[C@@H](NC(=O)c2n[nH]c3ccc(C(F)(F)F)cc23)COc2ccccc21 [Example 115, (S)—N-(5-methyl-4-oxo-2,3,4,5-tetrahydrobenzo[b][1,4]oxazepin-3-yl)-5-(trifluoromethyl)-1H-indazole-3-carboxamide]

same assay, conditions: Table 1; apparent Ki (Morrison tight-binding fit); 50 nM RIP1 kinase domain, 50 uM ATP, 2 hours incubation; read-out: RIP1 Ki

SMILES	Ki [nM]
CN1C(=O)[C@@H](NC(=O)c2n[nH]c3c2CCC2(CC2)C3)COc2ccccc21 [Example 2, (S)—N-(5-methyl-4-oxo-2,3,4,5-tetrahydrobenzo[b][1,4]oxazepin-3-yl)-1′,4′,5′,7′-tetrahydrospiro[cyclopropane-1,6′-indazole]-3′-carboxamide]	6500
CN1C(=O)[C@@H](NC(=O)c2ncc3n2CC(C(F)(F)F)CC3)COc2ccccc21 (stereo partly drawn) [Example 36, N—((S)-5-methyl-4-oxo-2,3,4,5-tetrahydrobenzo[b][1,4]oxazepin-3-yl)-6-(trifluoromethyl)-5,6,7,8-tetrahydroimidazo[1,5-a]pyridine-3-carboxamide]	185

same assay, conditions: Table 5; apparent Ki (Morrison tight-binding fit); 50 nM RIP1 kinase domain, 50 uM ATP, 2 hours incubation; read-out: Ki

SMILES	Ki [nM]
COCCOCCc1cc2n(n1)CC[C@H](NC(=O)c1ncn(Cc3ccccc3)n1)C(=O)N2C [Example 755, 1-benzyl-N-[(6S)-2-[2-(2-methoxyethoxy)ethyl]-4-methyl-5-oxo-7,8-dihydro-6H-pyrazolo[1,5-a][1,3]diazepin-6-yl]-1,2,4-triazole-3-carboxamide]	124
CN1C(=O)C(NC(=O)c2ncn(Cc3ccccc3)n2)CCn2nc(Cn3cccn3)cc21 (racemic) [Example 705, 1-benzyl-N-[4-methyl-5-oxo-2-(pyrazol-1-ylmethyl)-7,8-dihydro-6H-pyrazolo[1,5-a][1,3]diazepin-6-yl]-1,2,4-triazole-3-carboxamide]	114

Next, values leading:

Ki [nM]	SMILES
13	CN1C(=O)[C@@H](NC(=O)c2nc3n(n2)[C@H](c2ccccc2)CCC3)COc2ccccc21 [Example 735, (S)—N—((S)-5-methyl-4-oxo-2,3,4,5-tetrahydrobenzo[b][1,4]oxazepin-3-yl)-5-phenyl-5,6,7,8-tetrahydro-[1,2,4]triazolo[1,5-a]pyridine-2-carboxamide]
206	CN1C(=O)[C@@H](NC(=O)c2nc3n(n2)CCNC3c2ccccc2)COc2ccccc21 (stereo partly drawn) [Example 723, N-[(3S)-5-methyl-4-oxo-2,3-dihydro-1,5-benzoxazepin-3-yl]-8-phenyl-5,6,7,8-tetrahydro-[1,2,4]triazolo[1,5-a]pyrazine-2-carboxamide]
24	CN1C(=O)[C@@H](NC(=O)c2ncn(Cc3ccccc3)n2)CCn2nc(C3CN(C(=O)OC(C)(C)C)C3)cc21 [Example 759]
74	CN1C(=O)[C@@H](NC(=O)c2ncn(Cc3ccccc3F)n2)CCn2nc(CCN3CCOCC3)cc21 [Example 753]

same assay, conditions: human RIP1 kinase domain (2-375), 50 uM ATP, 2 hours incubation, Transcreener ADP assay; read-out: RIP1 Ki

Ki [nM]	SMILES
61.4	CN1C(=O)[C@@H](NC(=O)c2cc3c(cn2)cnn3C2CCOC2)COc2ccccc21 (stereo partly drawn) [Example 128, N—((S)-5-methyl-4-oxo-2,3,4,5-tetrahydrobenzo[b][1,4]oxazepin-3-yl)-1-(tetrahydrofuran-3-yl)-1H-pyrazolo[4,3-c]pyridine-6-carboxamide]
341	CN1C(=O)C(NC(=O)c2cn(Cc3ccccc3)nn2)CCn2ccnc21 (centres unmarked) [Example 196, 1-benzyl-N-(9-methyl-8-oxo-6,7,8,9-tetrahydro-5H-imidazo[1,2-a][1,3]diazepin-7-yl)-1H-1,2,3-triazole-4-carboxamide]
301	CN1C(=O)[C@@H](NC(=O)c2cn(Cc3ccc(F)c(F)c3)cn2)CCn2nccc21 [Example 146, (S)-1-(3,4-difluorobenzyl)-N-(4-methyl-5-oxo-5,6,7,8-tetrahydro-4H-pyrazolo[1,5-a][1,3]diazepin-6-yl)-1H-imidazole-4-carboxamide]
78.6	CN1C(=O)C(NC(=O)c2nnc(Cc3ccccc3)[nH]2)CCn2nc3c(c21)CSC3 (centres unmarked) [Example 145, 5-benzyl-N-(1-methyl-2-oxo-1,2,3,4,5,10-hexahydro-8H-thieno[3′,4′:3,4]pyrazolo[1,5-a][1,3]diazepin-3-yl)-4H-1,2,4-triazole-3-carboxamide]

same assay, conditions: human RIP1 kinase domain (2-375), Transcreener ADP assay, 50 uM ATP, 2 hours incubation; read-out: RIP1 Ki

SMILES	Ki [nM]
CC(c1cnc2[nH]nc(C(=O)N[C@H]3COc4ccccc4N(C)C3=O)c2c1)C(F)(F)F (stereo partly drawn) [Example 296, N—((S)-5-methyl-4-oxo-2,3,4,5-tetrahydrobenzo[b][1,4]oxazepin-3-yl)-5-(1,1,1-trifluoropropan-2-yl)-1H-pyrazolo[3,4-b]pyridine-3-carboxamide]	61.2
Cc1nn2c(c1C)N(C)C(=O)[C@@H](NC(=O)c1ncn(Cc3cccc(F)c3F)n1)CC2 [Example 272, (S)-1-(2,3-difluorobenzyl)-N-(2,3,4-trimethyl-5-oxo-5,6,7,8-tetrahydro-4H-pyrazolo[1,5-a][1,3]diazepin-6-yl)-1H-1,2,4-triazole-3-carboxamide]	45.2

Further lines, results first:

Ki [nM]	SMILES
20.8	CN1C(=O)[C@@H](NC(=O)c2ncn(Cc3ccccc3)n2)CCn2cncc21 [Example 297, (S)-1-benzyl-N-(1-methyl-2-oxo-2,3,4,5-tetrahydro-1H-imidazo[1,5-a][1,3]diazepin-3-yl)-1H-1,2,4-triazole-3-carboxamide]
62.3	CN1C(=O)C(NC(=O)c2ncn(Cc3ccc(Cl)cc3)n2)CCn2nc(C3CC3)cc21 (centres unmarked) [Example 288, 1-(4-chlorobenzyl)-N-(2-cyclopropyl-4-methyl-5-oxo-5,6,7,8-tetrahydro-4H-pyrazolo[1,5-a][1,3]diazepin-6-yl)-1H-1,2,4-triazole-3-carboxamide]

same assay, conditions: tight-binding apparent inhibition constant; human RIP1 kinase domain (2-375) 50 nM, 50 uM ATP, 2 hours; read-out: Ki

Ki [nM]	SMILES
530	Cc1cc2n(n1)CC[C@H](NC(=O)c1nc3n(n1)[C@H](c1ccccc1F)CC3)C(=O)N2C [Example 667, (5S)-5-(2-fluorophenyl)-N-[(6S)-2,4-dimethyl-5-oxo-7,8-dihydro-6H-pyrazolo[1,5-a][1,3]diazepin-6-yl]-6,7-dihydro-5H-pyrrolo[1,2-b][1,2,4]triazole-2-carboxamide]
4.91	Cc1cc(F)c2c(c1)OC[C@H](NC(=O)c1nc3n(n1)[C@H](C(F)(F)F)CC3)C(=O)N2 [Example 347, (5S)—N-[(3S)-6-fluoro-8-methyl-4-oxo-3,5-dihydro-2H-1,5-benzoxazepin-3-yl]-5-(trifluoromethyl)-6,7-dihydro-5H-pyrrolo[1,2-b][1,2,4]triazole-2-carboxamide]
90	CN1C(=O)[C@@H](NC(=O)c2ncc3c(n2)C2(CCOC2)OC3)COc2ccccc21 (stereo partly drawn) [Example 508, N-[(3S)-5-methyl-4-oxo-2,3-dihydro-1,5-benzoxazepin-3-yl]spiro[5H-furo[3,4-d]pyrimidine-7,3′-tetrahydrofuran]-2-carboxamide]
45	CCc1cc2n(n1)CCC(NC(=O)c1ncn(Cc3ccccc3F)n1)C(=O)N2C (centres unmarked) [Example 463, N-(2-Ethyl-4-methyl-5-oxo-5,6,7,8-tetrahydro-4H-pyrazolo[1,5-a][1,3]diazepin-6-yl)-1-(2-fluorobenzyl)-1H-1,2,4-triazole-3-carboxamide]
13.1	CN1C(=O)[C@@H](NC(=O)c2nc3cccc(-c4cc(F)ccc4F)n3n2)CCn2nccc21 [Example 382, (S)-5-(2,5-difluorophenyl)-N-(4-methyl-5-oxo-5,6,7,8-tetrahydro-4H-pyrazolo[1,5-a][1,3]diazepin-6-yl)-[1,2,4]triazolo[1,5-a]pyridine-2-carboxamide]
120	CN1C(=O)[C@@H](NC(=O)c2ncc3c(n2)[C@]2(CCCOC2)OC3)COc2ccccc21 (racemic) [Example 696, rac-(75)-N-[rac-(3S)-5-methyl-4-oxo-2,3-dihydro-1,5-benzoxazepin-3-yl]spiro[5H-furo[3,4-d]pyrimidine-7,3′-tetrahydropyran]-2-carboxamide]
